Test results from patent US8188073B2, “Benzoxazines and related nitrogen-containing heterobicyclic compounds useful as mineralocorticoid receptor modulating agents” (Mitsubishi Tanabe Pharma Corporation, priority 2006, dated 2012).

How the values were obtained:
[1] = molecular target: T1, glucocorticoid receptors (GR) (Rattus norvegicus, UniProt P06536); experiment: binding assay using glucocorticoid receptors derived from rat liver and 3H-dexamethazone; conditions: GR derived from rat liver
T1 construct: glucocorticoid receptors (GR) derived form rat liver; from tissue; host or cells: rat liver
T1 sequence (P06536 1-795): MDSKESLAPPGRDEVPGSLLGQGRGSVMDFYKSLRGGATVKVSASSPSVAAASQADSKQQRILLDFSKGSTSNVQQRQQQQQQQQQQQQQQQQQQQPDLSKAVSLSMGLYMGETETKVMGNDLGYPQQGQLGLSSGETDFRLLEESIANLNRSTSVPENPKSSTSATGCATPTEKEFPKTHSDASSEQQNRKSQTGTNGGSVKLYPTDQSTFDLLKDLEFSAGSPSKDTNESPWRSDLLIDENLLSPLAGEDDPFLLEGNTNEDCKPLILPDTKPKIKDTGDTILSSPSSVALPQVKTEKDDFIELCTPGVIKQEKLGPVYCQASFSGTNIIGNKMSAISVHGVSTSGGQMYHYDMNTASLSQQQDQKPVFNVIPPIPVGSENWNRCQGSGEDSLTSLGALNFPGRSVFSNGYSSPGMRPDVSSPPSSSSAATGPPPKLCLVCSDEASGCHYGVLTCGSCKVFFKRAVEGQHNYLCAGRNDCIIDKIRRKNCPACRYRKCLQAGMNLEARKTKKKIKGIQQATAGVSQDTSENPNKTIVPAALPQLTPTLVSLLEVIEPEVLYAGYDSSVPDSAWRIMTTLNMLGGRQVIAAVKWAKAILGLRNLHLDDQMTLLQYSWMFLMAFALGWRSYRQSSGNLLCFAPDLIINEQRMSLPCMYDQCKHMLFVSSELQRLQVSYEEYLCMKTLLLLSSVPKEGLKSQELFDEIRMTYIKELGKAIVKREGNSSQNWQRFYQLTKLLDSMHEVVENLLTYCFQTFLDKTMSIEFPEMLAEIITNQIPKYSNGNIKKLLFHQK
Method: (§1) Each biding assay was conducted in a similar manner as the procedure described in The Journal of Pharmacology and Experimental Therapeutics, 1987; 240:p. 650-656.

[2] = molecular target: T2, mineralocorticoid receptors (MR) (Rattus norvegicus, UniProt P22199); experiment: binding assay using rat MR and 3H-aldosterone; conditions: for IC50: rat MR and 3H-aldosterone
T2 construct: mineralocorticoid receptors (MR) derived form rat kidney; from tissue; host or cells: rat kidney
T2 sequence (P22199 1-981): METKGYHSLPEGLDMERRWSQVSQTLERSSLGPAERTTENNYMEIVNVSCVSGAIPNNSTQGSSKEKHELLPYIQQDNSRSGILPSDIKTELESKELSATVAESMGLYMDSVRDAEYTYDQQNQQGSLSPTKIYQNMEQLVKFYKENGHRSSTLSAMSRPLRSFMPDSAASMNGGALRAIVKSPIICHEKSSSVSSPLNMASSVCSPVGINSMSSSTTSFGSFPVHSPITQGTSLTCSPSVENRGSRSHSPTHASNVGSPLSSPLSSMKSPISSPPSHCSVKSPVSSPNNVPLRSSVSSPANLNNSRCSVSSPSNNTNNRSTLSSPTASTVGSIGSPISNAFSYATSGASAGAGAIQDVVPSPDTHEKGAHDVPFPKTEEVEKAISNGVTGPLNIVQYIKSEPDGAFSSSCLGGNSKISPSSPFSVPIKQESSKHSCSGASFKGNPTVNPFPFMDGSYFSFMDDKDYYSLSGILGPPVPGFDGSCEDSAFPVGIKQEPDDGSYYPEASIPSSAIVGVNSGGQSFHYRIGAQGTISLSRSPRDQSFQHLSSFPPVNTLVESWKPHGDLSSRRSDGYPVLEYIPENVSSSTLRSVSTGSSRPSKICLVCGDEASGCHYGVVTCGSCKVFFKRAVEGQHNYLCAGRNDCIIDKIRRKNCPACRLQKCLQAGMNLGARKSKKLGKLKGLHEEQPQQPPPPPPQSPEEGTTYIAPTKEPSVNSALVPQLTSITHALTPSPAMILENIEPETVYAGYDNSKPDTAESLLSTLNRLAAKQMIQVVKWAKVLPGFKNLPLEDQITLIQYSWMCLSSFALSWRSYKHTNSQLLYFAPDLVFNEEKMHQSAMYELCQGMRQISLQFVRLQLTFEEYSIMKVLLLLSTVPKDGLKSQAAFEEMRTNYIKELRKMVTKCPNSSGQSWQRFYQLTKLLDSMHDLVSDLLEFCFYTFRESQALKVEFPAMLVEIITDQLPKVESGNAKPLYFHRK
Method: as §1
For example, in a binding assay using rat MR and ^3H-aldosterone, which was conducted in accordance with a manner as described in The Journal of Pharmacology and Experimental Therapeutics, 1987; 240: p. […] Therefore, the compound [I] of the present invention is useful as a medicament for prevention or treatment of various diseases associated with the receptor and/or aldosterone, such as cardiovascular diseases including hypertension and heart failure.

[3] = molecular target: T3, androgen receptors (AR) (Rattus norvegicus, UniProt P15207); experiment: binding assay using androgen receptors derived from rat prostate and 3H-methyltrienorone; conditions: AR derived from rat prostate
T3 construct: androgen receptors (AR) derived form rat prostate; from tissue; host or cells: rat prostate
T3 sequence (P15207 1-902): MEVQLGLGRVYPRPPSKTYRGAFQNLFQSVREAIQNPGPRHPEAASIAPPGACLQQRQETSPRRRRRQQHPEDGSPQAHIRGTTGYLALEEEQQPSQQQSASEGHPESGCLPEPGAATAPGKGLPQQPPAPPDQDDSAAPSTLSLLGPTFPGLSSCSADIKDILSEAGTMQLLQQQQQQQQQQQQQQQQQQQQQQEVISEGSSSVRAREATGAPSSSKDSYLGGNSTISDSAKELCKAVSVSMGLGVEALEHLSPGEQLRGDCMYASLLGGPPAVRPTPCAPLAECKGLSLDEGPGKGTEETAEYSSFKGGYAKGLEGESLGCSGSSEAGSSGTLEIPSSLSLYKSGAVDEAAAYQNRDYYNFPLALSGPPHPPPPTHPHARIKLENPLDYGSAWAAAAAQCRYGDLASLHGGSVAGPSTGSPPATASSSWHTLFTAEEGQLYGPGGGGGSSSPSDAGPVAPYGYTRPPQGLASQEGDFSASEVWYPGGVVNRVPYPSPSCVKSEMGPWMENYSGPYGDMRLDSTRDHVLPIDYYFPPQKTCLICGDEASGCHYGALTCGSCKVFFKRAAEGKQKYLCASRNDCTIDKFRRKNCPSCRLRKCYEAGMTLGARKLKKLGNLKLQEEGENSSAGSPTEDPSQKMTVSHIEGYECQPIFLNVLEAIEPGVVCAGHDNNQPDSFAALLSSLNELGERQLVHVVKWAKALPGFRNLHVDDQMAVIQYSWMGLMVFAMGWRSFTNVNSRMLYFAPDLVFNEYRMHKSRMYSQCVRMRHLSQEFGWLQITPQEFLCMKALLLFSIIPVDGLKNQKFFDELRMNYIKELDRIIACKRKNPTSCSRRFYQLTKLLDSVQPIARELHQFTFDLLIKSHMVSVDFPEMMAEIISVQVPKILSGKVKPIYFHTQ
Method: as §1

[4] = molecular target: T4, Aldosterone Receptor (Rattus norvegicus, UniProt P22199); experiment: Aldosterone Receptor Binding Assay (Experiment 1; kidney cytosol fraction, [3H]aldosterone); design: species or system Sprague-Dawley male rats; conditions: [3H]aldosterone ca. 2 nM, 4° C. overnight, Ki by Cheng and Prusoff's equation
T4 construct: centrifuged at 100,000×g for 1 hour to give a supernatant as a kidney cytosol fraction; from tissue; host or cells: kidney cytosol of adrenalectomised Sprague-Dawley male rats
T4 sequence (P22199 1-981): T2 sequence (P22199 1-981)
Method: Experiment 1 [Aldosterone Receptor Binding Assay]
(1) Preparation of Kidney Cytosol Fraction:
Kidneys derived from post-adrenalectomy Sprague-Dawley male rats (7 weeks old) were homogenized in the following buffer solution and the homogenate was centrifuged at 100,000×g for 1 hour to give a supernatant as a kidney cytosol fraction (protein concentration: 15 mg/mL) for the present biding assay.
Composition of Buffer solution: 50 mM Tris-HCl (pH 7.5), 250 mM Sucrose, 50 mM Potassium chloride, 3 mM Magnesium chloride, 20 mM Sodium molybdate and 1 mM Mercaptoethanol
A mixture of 5 μL of a solution of each test compound in dimethylsulfoxide, 200 μL of kidney cytosol fraction, 50 μL of physiological saline (or 50 μL of unlabeled aldosterone solution (final concentration: 1 μM) and (50 μL of [^3H]aldosterone solution (ca. 2 nM) was incubated in a test tube at 4° C. overnight. Thereto was added 100 μL of dextrane-coated charcoal/10 mM Tris-HCl buffer and the mixture was incubated at 4° C. for 30 minutes. The reaction mixture was centrifuged at 3000 rpm for 10 minutes and to the supernatant (150 μL) was added 5 mL of a scintillator (Clearsol II, Nakarai Tesque). The radioactivity was measured by a liquid scintilation counter (TRI CARB 2200CA, Packard). […] Moreover, the dissociation constant (Ki) of each test compound was calculated on Cheng and Prusoff's equation (Ki=IC50/(1+[L]/Kd), wherein [L] is [^3H]aldosterone concentration and Kd is the affinity constant of aldosterone).

SMILES | Ki [4] [nM] | further results
Cc1ccc(N2C(=O)C(C)(C)Oc3cc([N+](=O)[O-])ccc32)cc1C(F)(F)F |  | Ki [1]: < 10000 nM
Cc1cc(N2C(=O)C(C)(C)Oc3cc([N+](=O)[O-])ccc32)ccc1F [4-(4-fluoro-3-methylphenyl)-2,2-dimethyl-7-nitro-2H-1,4-benzoxizin-3 (4H)-one] |  | Ki [1]: < 10000 nM
O=C1C(c2ccccc2)Oc2cc([N+](=O)[O-])ccc2N1c1ccc(F)cc1 (stereo not drawn) [4-(4-fluorophenyl)-7-nitro-2-phenyl-2H-1,4-benzoxizin-3(4H)-one] |  | Ki [1]: < 10000 nM
CC1(C)Oc2cc([N+](=O)[O-])c(Cl)cc2N(c2ccc(F)cc2)C1=O [6-chloro-4-(4-fluorophenyl)-2,2-dimethyl-7-nitro-2H-1,4-benzoxizin-3(4H)-one] |  | Ki ([2]; MR derived from rat kidney): < 10000 nM
CC1(C)Oc2cc(N)ccc2N(c2ccc(F)c(F)c2)C1=O [7-amino-4-(3,4-difluorophenyl)-2,2-dimethyl-2H-1,4-benzoxizin-3(4H)-one] |  | Ki [3]: < 10000 nM
CS(=O)(=O)Nc1ccc2c(c1)OC(c1ccccc1)C(=O)N2c1ccc(Cl)cc1 (stereo not drawn) [Example 6] | < 500 | 
CC1(C)Oc2cc(NS(C)(=O)=O)ccc2N(c2ccc(F)cc2)C1=O [Example 9, N-[4-(4-fluorophenyl)-2,2-dimethyl-3-oxo-3,4-dihydro-2H-1,4-benzoxazin-7-yl]methanesulfonamide] | < 500 | 
CC1(C)Oc2cc(NS(C)(=O)=O)ccc2N(c2ccc(F)c(F)c2)C1=O [Example 10] | < 500 | 
CC1(C)Oc2cc(NS(C)(=O)=O)ccc2N(c2ccc(Cl)cc2)C1=O [Example 11] | < 500 | 
CC1(C)Oc2cc(NS(C)(=O)=O)ccc2N(Cc2ccccc2)C1=O [Example 19] | < 500 | 
CS(=O)(=O)Nc1ccc2c(c1)OC1(CCC1)C(=O)N2c1ccc(F)cc1 [Example 37] | 500 to 1000 | 
CC1(C)Nc2cc(NS(C)(=O)=O)ccc2N(c2ccc(F)cc2)C1=O [Example 45, N-[1-(4-fluorophenyl)-3,3-dimethyl-2-oxo-1,2,3,4-tetrahydroquinoxalin-6-yl]methanesulfonamide] | < 500 | 
CC1(C)Oc2cc(NS(C)(=O)=O)ccc2N(c2ccc(F)cc2)C1=S [Example 46, N-[4-(4-fluorophenyl)-2,2-dimethyl-3-thioxo-3,4-dihydro-2H-1,4-benzoxazin-7-yl]methanesulfonamide] | < 500 | 
Cc1cc(F)ccc1N1C(=O)C(C)(C)Oc2cc(NS(C)(=O)=O)ccc21 [Example 50] | < 500 | 
COc1cccc(N2C(=O)C(C)(C)Oc3cc(NS(C)(=O)=O)ccc32)c1 [Example 53] | < 500 | 
COc1cc(N2C(=O)C(C)(C)Oc3cc(NS(C)(=O)=O)ccc32)ccc1F [Example 55, N-[4-(4-Fluoro-3-methoxyphenyl)-2,2-dimethyl-3-oxo-3,4-dihydro-2H-1,4-benzoxazin-7-yl]methanesulfonamide] | < 500 | 
CC1(C)Oc2cc(NS(C)(=O)=O)ccc2N(c2ccncc2)C1=O [Example 64] | < 500 | 
CS(=O)(=O)Nc1ccc2c(c1)OCC(=O)N2c1ccc(F)c(Cl)c1 [Example 67] | 500 to 1000 | 
COc1cc2c(cc1NS(C)(=O)=O)OC(C)(C)C(=O)N2c1ccc(F)cc1 [Example 101, N-[4-(4-Fluorophenyl)-6-methoxy-2,2-dimethyl-3-oxo-3,4-dihydro-2H-1,4-benzoxazin-7-yl]methanesulfonamide] | < 500 | 
CC1(C)Oc2cc(NS(C)(=O)=O)ccc2N(c2ccccc2)C1=O [N-(2,2-dimethyl-3-oxo-4-phenyl-3,4-dihydro-2H-1,4-benzoxazin-7-yl)methanesulfonamide] |  | IC50 [2]: < 10000 nM
CS(=O)(=O)Nc1ccc2c(c1)OC(c1ccccc1)C(=O)N2c1ccccc1 (stereo not drawn) [N-(3-oxo-2,4-diphenyl-3,4-dihydro-2H-1,4-benzoxazin-7-yl)methane sulfonamide] |  | IC50 [2]: < 10000 nM
